According to patent publication US20260207615A1, “FLUOROPYRIDOPYRIMIDINE AND FLUOROQUINAZOLINE DERIVATIES AND METHODS OF USE THEREOF” (Frontier Medicines Corporation, priority 2022, published 2026):

Molecular target: T1, KRAS G12C and cRAF interaction (Homo sapiens, UniProt P01116, C118S/C51S/C80L/G12C)
T1 construct: truncated version comprising amino acids 1-169
Assay: Inhibition of KRAS G12C and cRAF binding (AlphaScreen)
Type: biochemical
Conditions: KRAS G12C (Cys-light, aa 1-169) preloaded with GMPPNP, cRaf RBD (aa 50-131), 2 hours incubation
Summary of the method: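 Biotin-AviTag KRAS G12C (Cys-light C51S/C80L/C118S, aa 1-169, GMPPNP-loaded; 0.5 nM final)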

T1 sequence (P01116 1-169 isoform P01116-2 G12C/C51S/C80L/C118S): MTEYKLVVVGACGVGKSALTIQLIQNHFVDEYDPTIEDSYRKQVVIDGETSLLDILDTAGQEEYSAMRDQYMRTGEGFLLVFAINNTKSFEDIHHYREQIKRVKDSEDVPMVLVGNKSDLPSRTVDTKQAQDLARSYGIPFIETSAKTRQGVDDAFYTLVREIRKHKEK

IC50 [nM]	SMILES
100 to 500	Cc1cc(/C=C/C(=O)N2CCN(c3nc(OC[C@@]45CCCN4C[C@H](F)C5)nc4c(F)c(-c5cccc(Cl)c5C(F)(F)F)ncc34)CC23COC3)nc(C)n1 [Example 69]
≥ 500	C=CC(=O)N1[C@@H](C)CN(c2nc(OC[C@@]34CCCN3C[C@H](F)C4)nc3c(F)c(-c4cccc5ccc(F)c(F)c45)ncc23)CC12COC2 [Example 70]
100 to 500	CN(C)C/C=C/C(=O)N1CCN(c2nc(OC[C@@]34CCCN3C[C@H](F)C4)nc3c(F)c(-c4cccc(Cl)c4C(F)(F)F)ncc23)CC12COC2 [Example 71]
100 to 500	C=CC(=O)N1[C@H](C)CN(c2nc(OC[C@@]34CCCN3C[C@H](F)C4)nc3c(F)c(-c4cccc5cccc(Cl)c45)ncc23)CC12COC2 [Example 72]
< 10	CN1CC[C@@H]1/C=C/C(=O)N1CCN(c2nc(OC[C@@]34CCCN3C[C@H](F)C4)nc3c(F)c(-c4cc(O)cc(Cl)c4C4CC4)ncc23)CC12COC2 [Example 73, (E)-1-(8-(7-(3-chloro-2-cyclopropyl-5-hydroxyphenyl)-8-fluoro-2-(((2R,7aS)-2-fluorotetrahydro-1H-pyrrolizin-7a(5H)-yl)methoxy)pyrido[4,3-d]pyrimidin-4-yl)-2-oxa-5,8-diazaspiro[3.5]nonan-5-yl)-3-((R)-1-methylazetidin-2-yl) prop-2-en-1-one]
≥ 500	C=CC(=O)N1[C@@H](C)CN(c2nc(OC[C@@]34CCCN3C[C@H](F)C4)nc3c(F)c(-c4cccc5cccc(Cl)c45)ncc23)CC12COC2 [Example 74]
≥ 500	C=CC(=O)N1CCN(c2nc(OC[C@@]34CCCN3C[C@H](F)C4)nc3c(F)c(-c4n[nH]c5cccc(Cl)c45)ncc23)CC12COC2 [Example 75]
≥ 500	CN1CC[C@@H]1/C=C/C(=O)N1CCN(c2nc(OC[C@@]34CCCN3C[C@H](F)C4)nc3c(F)c(-c4cccc(Cl)c4C(F)(F)F)ncc23)CC12COC2 [Example 76]
10 to 100	O=C(/C=C/CN1CC2CC(C1)O2)N1CCN(c2nc(OC[C@@]34CCCN3C[C@H](F)C4)nc3c(F)c(-c4cccc(Cl)c4C(F)(F)F)ncc23)CC12COC2 [Example 77]
< 10	C=CC(=O)N1CCN(c2nc(OC[C@@]34CCCN3C[C@H](F)C4)nc3c(F)c(-c4cc(O)cc(Cl)c4C4CC4)c(Cl)cc23)CC12COC2 [Example 78, 1-(8-(6-chloro-7-(3-chloro-2-cyclopropyl-5-hydroxyphenyl)-8-fluoro-2-(((2R,7aS)-2-fluorotetrahydro-1H-pyrrolizin-7a(5H)-yl)methoxy)quinazolin-4-yl)-2-oxa-5,8-diazaspiro[3.5]nonan-5-yl) prop-2-en-1-one]
≥ 500	C=C(F)C(=O)N1CCN(c2nc(OC[C@@]34CCCN3C[C@H](F)C4)nc3c(F)c(-c4cc(O)cc(Cl)c4C4CC4)ncc23)CC12COC2 [Example 79]
10 to 100	C=CC(=O)N1CCN(c2nc(OC[C@@]34CCCN3C[C@H](F)C4)nc3c(F)c(-c4cccc5ccc(F)c(F)c45)ncc23)C[C@@]12CCOC2 [Example 80]
≥ 500	C=CC(=O)N1CCN(c2nc(OC[C@@]34CCCN3C[C@H](F)C4)nc3c(F)c(-c4cccc5ccc(F)c(F)c45)ncc23)C[C@]12CCOC2 [Example 81]
10 to 100	C=CC(=O)N1CCN(c2nc(OC[C@@]34CCCN3C[C@H](F)C4)nc3c(F)c(-c4cccc5ccc(F)c(F)c45)ncc23)CC12CCOC2 (stereo partly shown) [Example 82]
≥ 500	C=CC(=O)N1CCN(c2nc(OC[C@@H]3CCCN3C)nc3c(F)c(-c4cccc5cccc(Cl)c45)ncc23)CC12CCOC2 (stereo partly shown) [Example 83]
100 to 500	C=CC(=O)N1CCN(c2nc(OC[C@@]34CCCN3C[C@H](F)C4)nc3c(F)c(-c4cccc5cccc(Cl)c45)ncc23)CC12CCOC2 (stereo partly shown) [Example 84]
